Data from patent US9499502B2, “5-substituted iminothiazines and their mono- and dioxides as BACE inhibitors, compositions, and their use” (Merck Sharp & Dohme Corp., priority 2011, dated 2016).

Target: soluble human BACE1 catalytic domain (Homo sapiens (Human), UniProt P56817)
Assay: BACE1 HTRF FRET Assay
Settings: for Ki: read-out: BACE1 Ki, Ki calculated from IC50 using the Cheng-Prusoff equation; for inhibition at 10 µM: read-out: BACE1 % Inh. at 10 μM, at 10 μM

soluble human BACE1 catalytic domain, sequence (P56817 75-416): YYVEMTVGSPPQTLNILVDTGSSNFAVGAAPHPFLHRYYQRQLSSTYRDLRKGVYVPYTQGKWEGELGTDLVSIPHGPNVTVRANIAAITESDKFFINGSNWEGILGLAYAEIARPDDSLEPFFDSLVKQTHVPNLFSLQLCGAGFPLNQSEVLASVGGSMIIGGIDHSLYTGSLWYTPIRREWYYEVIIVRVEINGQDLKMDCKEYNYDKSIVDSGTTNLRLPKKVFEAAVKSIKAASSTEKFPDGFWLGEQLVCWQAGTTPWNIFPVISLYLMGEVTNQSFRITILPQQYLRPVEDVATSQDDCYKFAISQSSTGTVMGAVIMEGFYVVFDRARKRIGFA

Row | SMILES | Ki [nM] | inhibition at 10 µM [%]
1 | COc1ccc(C(=O)Nc2ccc(F)c([C@]3(C)CS(=O)(=O)C(C)(C)C(=N)N3)c2)nc1 [Example 9a] | 4.6 | 
2 | CC1(C)C(=N)N[C@](C)(c2c(F)c(F)cc(NC(=O)c3ccc(F)cn3)c2F)CS1(=O)=O [Example 9aa] | 35.4 | 
3 | CC1(C)C(=N)N[C@](C)(c2c(F)c(F)cc(NC(=O)c3ccc(Cl)cn3)c2F)CS1(=O)=O [Example 9ab] | 9.6 | 
4 | CC1(C(=O)Nc2ccc(F)c([C@]3(C)CS(=O)(=O)C(C)(C)C(=N)N3)c2)COC1 [Example 9af] | 739 | 
5 | CC1(C)C(=N)N[C@](C)(c2cc(NC(=O)CC(F)(F)F)ccc2F)CS1(=O)=O [Example 9ag] | 663 | 
6 | CC1(C)C(=N)N[C@](C)(c2cc(NC(=O)C3(C#N)CC3)ccc2F)CS1(=O)=O [Example 9ah] | 210 | 
7 | CC1(C(=O)Nc2ccc(F)c([C@]3(C)CS(=O)(=O)C(C)(C)C(=N)N3)c2)CC1 [Example 9aj] | 1490 | 
8 | Cc1cnc(C(=O)Nc2ccc(F)c([C@]3(C)CS(=O)(=O)C(C)(C)C(=N)N3)c2)cn1 [Example 9ak] | 26 | 
9 | CC1(C)C(=N)N[C@](C)(c2cc(NC(=O)[C@H]3CCCO3)ccc2F)CS1(=O)=O [Example 9al] | 172 | 
10 | CC1(C)C(=N)N[C@](C)(c2cc(NC(=O)C3CC3)ccc2F)CS1(=O)=O [Example 9am] | 359 | 
11 | CC(=O)Nc1ccc(F)c([C@]2(C)CS(=O)(=O)C(C)(C)C(=N)N2)c1 [Example 9an] | 1440 | 
12 | Cc1noc(CC(=O)Nc2ccc(F)c([C@]3(C)CS(=O)(=O)C(C)(C)C(=N)N3)c2)n1 [Example 9ao] | 3240 | 
13 | CC1(C)C(=N)N[C@](C)(c2cc(NC(=O)c3cocn3)ccc2F)CS1(=O)=O [Example 9ap] | 39 | 
14 | CC1(C)C(=N)N[C@](C)(c2cc(NC(=O)C3CCC3)ccc2F)CS1(=O)=O [Example 9aq] | 476 | 
15 | CC1(C)C(=N)N[C@](C)(c2cc(NC(=O)CC3CC3)ccc2F)CS1(=O)=O [Example 9ar] | 915 | 
16 | CCC(=O)Nc1ccc(F)c([C@]2(C)CS(=O)(=O)C(C)(C)C(=N)N2)c1 [Example 9as] | 521 | 
17 | CC1(C)C(=N)N[C@](C)(c2cc(NC(=O)C(F)F)ccc2F)CS1(=O)=O [Example 9au] | 195 | 
18 | CC1(C)C(=N)N[C@](C)(c2cc(NC(=O)C3CCOCC3)ccc2F)CS1(=O)=O [Example 9av] | 8580 | 
19 | CN(C)CC(=O)Nc1ccc(F)c([C@]2(C)CS(=O)(=O)C(C)(C)C(=N)N2)c1 [Example 9ay] |  | 23

Row | SMILES | Ki [nM] | inhibition at 10 µM [%]
20 | CC1(C(=O)Nc2cc(F)c(F)c([C@]3(C)CS(=O)(=O)C(C)(C)C(=N)N3)c2)CC1 [Example 9az] | 708 | 
21 | CC1(C)C(=N)N[C@](C)(c2cc(NC(=O)c3ccc(C#N)cn3)ccc2F)CS1(=O)=O [Example 9b] | < 0.5 | 
22 | CC1(C)C(=N)N[C@](C)(c2cc(NC(=O)C3CCOCC3)cc(F)c2F)CS1(=O)=O [Example 9bb] |  | 48
23 | CC1(C)C(=N)N[C@](C)(c2cc(NC(=O)CC(F)(F)F)cc(F)c2F)CS1(=O)=O [Example 9bc] | 703 | 
24 | CCC(=O)Nc1cc(F)c(F)c([C@]2(C)CS(=O)(=O)C(C)(C)C(=N)N2)c1 [Example 9be] | 429 | 
25 | CC1(C)C(=N)N[C@](C)(c2cc(NC(=O)C3(C#N)CC3)cc(F)c2F)CS1(=O)=O [Example 9bj] | 485 | 
26 | CC1(C)C(=N)N[C@](C)(c2cc(NC(=O)[C@H]3CCCO3)cc(F)c2F)CS1(=O)=O [Example 9bm] | 218 | 
27 | CC(=O)Nc1cc(F)c(F)c([C@]2(C)CS(=O)(=O)C(C)(C)C(=N)N2)c1 [Example 9bn] | 1020 | 
28 | CC1(C(=O)Nc2cc(F)c(F)c([C@]3(C)CS(=O)(=O)C(C)(C)C(=N)N3)c2)COC1 [Example 9bp] | 1150 | 
29 | Cc1noc(CC(=O)Nc2cc(F)c(F)c([C@]3(C)CS(=O)(=O)C(C)(C)C(=N)N3)c2)n1 [Example 9bq] | 4960 | 
30 | CC1(C)C(=N)N[C@](C)(c2cc(NC(=O)C3CCC3(F)F)cc(F)c2F)CS1(=O)=O (some centres unmarked) [Example 9br] | 610 | 
31 | CC1(C)C(=N)N[C@](C)(c2cc(NC(=O)c3ccno3)cc(F)c2F)CS1(=O)=O [Example 9bs] | 171 | 
32 | CC1(C)C(=N)N[C@](C)(c2cc(NC(=O)C3CCC3)cc(F)c2F)CS1(=O)=O [Example 9bt] | 721 | 
33 | CC1(C)C(=N)N[C@](C)(c2cc(NC(=O)CC3CC3)cc(F)c2F)CS1(=O)=O [Example 9bv] | 1340 | 
34 | CN(C)CC(=O)Nc1cc(F)c(F)c([C@]2(C)CS(=O)(=O)C(C)(C)C(=N)N2)c1 [Example 9bw] |  | 48
35 | CC1(C)C(=N)N[C@](C)(c2cc(NC(=O)Cc3ncccn3)cc(F)c2F)CS1(=O)=O [Example 9bx] | 7070 | 
36 | CC1(C)C(=N)N[C@](C)(c2cc(NC(=O)c3ccc(OC(F)F)cn3)ccc2F)CS1(=O)=O [Example 9c] | 0.6 | 
37 | CC1(C)C(=N)N[C@](C)(c2nc(NC(=O)c3ccc(F)cn3)ccc2F)CS1(=O)=O [Example 9cd] | 48 | 
38 | COc1ccc(C(=O)Nc2ccc(F)c([C@]3(C)CS(=O)(=O)C(C)(C)C(=N)N3)n2)nc1 [Example 9ce] | 55.1 | 
